Measured values published in patent US10835542B2, “9-aminomethyl minocycline compounds and use thereof in treating community-acquired bacterial pneumonia (CABP)” (Paratek Pharmaceuticals, Inc., priority 2016, dated 2020).
Read-outs that look alike come from different tables or passages of the source.

What was measured:
baseline pathogen = format: in vivo, human; details: PTE, microITT
Staphylococcus aureus = format: in vivo, human; details: PTE, microITT
[1] = Phase 1 multiple oral dose study: safety and tolerability; details: for Most frequent TEAEs: ALT increased, n (%) / Most frequent TEAEs: Diarrhea, n (%) / Most frequent TEAEs: Dizziness, n (%) / Most frequent TEAEs: Nausea, n (%) / Most frequent TEAEs: Vomiting, n (%) / TEAEs leading to early discontinuation of study drug: ALT increased, n (%) / TEAEs leading to early discontinuation of study drug: All, n (%) / TEAEs leading to early discontinuation of study drug: Lipase increased, n (%) / TEAEs leading to early discontinuation of study drug: Nausea, n (%) / TEAEs leading to early discontinuation of study drug: Syncope, n (%) / TEAEs leading to early discontinuation of study drug: Vomiting, n (%) / n (%) of subjects with Any TEAE / n (%) of subjects with Treatment-related TEAE: Safety Population

With `CN(C)c1cc(CNCC(C)(C)C)c(O)c2c1C[C@H]1C[C@H]3[C@H](N(C)C)C(O)=C(C(N)=O)C(=O)[C@@]3(O)C(O)=C1C2=O` [Compound 1, 9-[(2,2-dimethyl-propylamino)-methyl]-minocycline] the “Clinical Success n (%)” value (baseline pathogen; baseline pathogen Acinetobacter baumanii complex, N1 = 0 (Compound 1), 1 (Moxifloxacin)) was 0 n (%), the “Clinical Success n (%)” value (baseline pathogen; baseline pathogen Acinetobacter baumanii, N1 = 0 (Compound 1), 1 (Moxifloxacin)) was 0 n (%) and the “Clinical Success n (%)” value (baseline pathogen; baseline pathogen Acinetobacter junii, N1 = 1 (Compound 1), 0 (Moxifloxacin)) was 1 (100.0) n (%). For the same compound, the “Clinical Success n (%)” value (baseline pathogen; baseline pathogen Acinetobacter lwoffii, N1 = 1 (Compound 1), 0 (Moxifloxacin)) was 1 (100.0) n (%), the “Clinical Success n (%)” value (baseline pathogen; baseline pathogen Citrobacter braakii, N1 = 0 (Compound 1), 1 (Moxifloxacin)) was 0 n (%) and the “Clinical Success n (%)” value (baseline pathogen; baseline pathogen Citrobacter freundii, N1 = 0 (Compound 1), 1 (Moxifloxacin)) was 0 n (%). For the same compound, the “Clinical Success n (%)” value (baseline pathogen; baseline pathogen Enterobacter cloacae, N1 = 2 (Compound 1), 4 (Moxifloxacin)) was 2 (100.0) n (%), the “Clinical Success n (%)” value (baseline pathogen; baseline pathogen Haemophilus haemolyticus, N1 = 1 (Compound 1), 0 (Moxifloxacin)) was 1 (100.0) n (%) and the “Clinical Success n (%)” value (baseline pathogen; baseline pathogen Haemophilus parahaemolyticus, N1 = 2 (Compound 1), 2 (Moxifloxacin)) was 2 (100.0) n (%). The “Clinical Success n (%)” value (baseline pathogen; baseline pathogen Klebsiella oxytoca, N1 = 1 (Compound 1), 4 (Moxifloxacin)) was 0 n (%), the “Clinical Success n (%)” value (baseline pathogen; baseline pathogen Morganella morganii, N1 = 1 (Compound 1), 0 (Moxifloxacin)) was 1 (100.0) n (%) and the “Clinical Success n (%)” value (baseline pathogen; baseline pathogen Neisseria meningitidis, N1 = 1 (Compound 1), 1 (Moxifloxacin)) was 1 (100.0) n (%). For the same compound, the “Clinical Success n (%)” value (baseline pathogen; baseline pathogen Prevotella oris, N1 = 0 (Compound 1), 1 (Moxifloxacin)) was 0 n (%), the “Clinical Success n (%)” value (baseline pathogen; baseline pathogen Proteus mirabilis, N1 = 2 (Compound 1), 2 (Moxifloxacin)) was 1 (50.0) n (%) and the “Clinical Success n (%)” value (baseline pathogen; baseline pathogen Pseudomonas aeruginosa, N1 = 3 (Compound 1), 5 (Moxifloxacin)) was 2 (66.7) n (%). The “Clinical Success n (%)” value (baseline pathogen; baseline pathogen Pseudomonas putida, N1 = 0 (Compound 1), 1 (Moxifloxacin)) was 0 n (%), the “Clinical Success n (%)” value (baseline pathogen; baseline pathogen Serratia marcescens, N1 = 1 (Compound 1), 0 (Moxifloxacin)) was 1 (100.0) n (%) and the “Clinical Success n (%)” value (baseline pathogen; baseline pathogen Stenotrophomonas maltophilia, N1 = 0 (Compound 1), 2 (Moxifloxacin)) was 0 n (%). The “Clinical Success n (%)” value (baseline pathogen; baseline pathogen Streptococcus agalactiae, N1 = 2 (Compound 1), 3 (Moxifloxacin)) was 2 (100.0) n (%), the “Clinical Success n (%)” value (baseline pathogen; baseline pathogen Streptococcus anginosus, N1 = 0 (Compound 1), 1 (Moxifloxacin)) was 0 n (%) and the “Clinical Success n (%)” value (baseline pathogen; baseline pathogen Streptococcus constellatus, N1 = 1 (Compound 1), 1 (Moxifloxacin)) was 1 (100.0) n (%). For the same compound, the “Clinical Success n (%)” value (baseline pathogen; baseline pathogen Streptococcus gordonii, N1 = 0 (Compound 1), 1 (Moxifloxacin)) was 0 n (%), the “Clinical Success n (%)” value (baseline pathogen; baseline pathogen Streptococcus mitis group, N1 = 1 (Compound 1), 2 (Moxifloxacin)) was 1 (100.0) n (%) and the “Clinical Success n (%)” value (baseline pathogen; baseline pathogen Streptococcus mitis, N1 = 3 (Compound 1), 5 (Moxifloxacin)) was 3 (100.0) n (%). The “Clinical Success n (%)” value (baseline pathogen; baseline pathogen Streptococcus oralis, N1 = 1 (Compound 1), 0 (Moxifloxacin)) was 1 (100.0) n (%), the “Clinical Success n (%)” value (baseline pathogen; baseline pathogen Streptococcus parasanguinis, N1 = 0 (Compound 1), 2 (Moxifloxacin)) was 0 n (%) and the “Clinical Success n (%)” value (baseline pathogen; baseline pathogen Streptococcus salivarius, N1 = 1 (Compound 1), 3 (Moxifloxacin)) was 1 (100.0) n (%). For the same compound, the “Clinical Success n (%)” value (baseline pathogen; baseline pathogen Streptococcus sanguinis, N1 = 0 (Compound 1), 2 (Moxifloxacin)) was 0 n (%), the “Clinical Success n (%)” value (Staphylococcus aureus; Staphylococcus aureus MRSA, N1 = 0 (Compound 1), 1 (Moxifloxacin)) was 0 n (%) and the “Clinical Success n (%)” value (Staphylococcus aureus; Staphylococcus aureus MSSA, N1 = 11 (Compound 1), 10 (Moxifloxacin)) was 8 (72.7) n (%). For the same compound, the “Clinical Success n (%)” value (Staphylococcus aureus; baseline pathogen Staphylococcus aureus, N1 = 11 (Compound 1), 11 (Moxifloxacin)) was 8 (72.7) n (%), the “frequency of treatment-related TEAEs” value ([1]; 300 mg) was 15.4% and the “median change in alanine aminotransferase (ALT) between baseline and Day 5” value (“median change” for short) ([1]; 300 mg) was −2.0 IU/L. For the same compound, the “Most frequent TEAEs: ALT increased, n (%)” value ([1]; 300 mg (n = 26)) was 0 n (%), the “Most frequent TEAEs: Diarrhea, n (%)” value ([1]; 300 mg (n = 26)) was 0 n (%) and the “Most frequent TEAEs: Dizziness, n (%)” value ([1]; 300 mg (n = 26)) was 2 (7.7) n (%). The “Most frequent TEAEs: Nausea, n (%)” value ([1]; 300 mg (n = 26)) was 2 (7.7) n (%), the “Most frequent TEAEs: Vomiting, n (%)” value ([1]; 300 mg (n = 26)) was 2 (7.7) n (%) and the “TEAEs leading to early discontinuation of study drug: ALT increased, n (%)” value (“TEAEs leading … ALT increased, n (%)” below) ([1]; 300 mg (n = 26)) was 0 n (%). The “TEAEs leading to early discontinuation of study drug: All, n (%)” value (“TEAEs leading … All, n (%)” below) ([1]; 300 mg (n = 26)) was 1 (3.8) n (%), the “TEAEs leading to early discontinuation of study drug: Lipase increased, n (%)” value (from here on “TEAEs leading … Lipase increased, n (%)”) ([1]; 300 mg (n = 26)) was 0 n (%) and the “TEAEs leading to early discontinuation of study drug: Nausea, n (%)” value (“TEAEs leading … Nausea, n (%)” below) ([1]; 300 mg (n = 26)) was 1 (3.8) n (%). The “TEAEs leading to early discontinuation of study drug: Syncope, n (%)” value (“TEAEs leading … Syncope, n (%)” for short) ([1]; 300 mg (n = 26)) was 0 n (%), the “TEAEs leading to early discontinuation of study drug: Vomiting, n (%)” value (shortened to “TEAEs leading … Vomiting, n (%)”) ([1]; 300 mg (n = 26)) was 1 (3.8) n (%) and the “n (%) of subjects with Any TEAE” value ([1]; 300 mg (n = 26)) was 5 (19.2) n (%). The “n (%) of subjects with Treatment-related TEAE” value ([1]; 300 mg (n = 26)) was 4 (15.4) n (%), the “frequency of treatment-related TEAEs” value ([1]; 450 mg) was 8.3% and the “median change” value ([1]; 450 mg) was 5.0 IU/L. The “Most frequent TEAEs: ALT increased, n (%)” value ([1]; 450 mg (n = 24)) was 1 (4.2) n (%), the “Most frequent TEAEs: Diarrhea, n (%)” value ([1]; 450 mg (n = 24)) was 0 n (%) and the “Most frequent TEAEs: Dizziness, n (%)” value ([1]; 450 mg (n = 24)) was 0 n (%). The “Most frequent TEAEs: Nausea, n (%)” value ([1]; 450 mg (n = 24)) was 1 (4.2) n (%), the “Most frequent TEAEs: Vomiting, n (%)” value ([1]; 450 mg (n = 24)) was 0 n (%) and the “TEAEs leading … ALT increased, n (%)” value ([1]; 450 mg (n = 24)) was 1 (4.2) n (%). The “TEAEs leading … All, n (%)” value ([1]; 450 mg (n = 24)) was 1 (4.2) n (%), the “TEAEs leading … Lipase increased, n (%)” value ([1]; 450 mg (n = 24)) was 0 n (%) and the “TEAEs leading … Nausea, n (%)” value ([1]; 450 mg (n = 24)) was 0 n (%). The “TEAEs leading … Syncope, n (%)” value ([1]; 450 mg (n = 24)) was 0 n (%), the “TEAEs leading … Vomiting, n (%)” value ([1]; 450 mg (n = 24)) was 0 n (%) and the “n (%) of subjects with Any TEAE” value ([1]; 450 mg (n = 24)) was 3 (12.5) n (%). The “n (%) of subjects with Treatment-related TEAE” value ([1]; 450 mg (n = 24)) was 2 (8.3) n (%), the “frequency of treatment-related TEAEs” value ([1]; 600 mg) was 25.0% and the “median change” value ([1]; 600 mg) was 19.5 IU/L. For the same compound, the reports of diarrhea ([1]; 600 mg) was 2, the “Most frequent TEAEs: ALT increased, n (%)” value ([1]; 600 mg (n = 24)) was 1 (4.2) n (%) and the “Most frequent TEAEs: Diarrhea, n (%)” value ([1]; 600 mg (n = 24)) was 2 (8.3) n (%). The “Most frequent TEAEs: Dizziness, n (%)” value ([1]; 600 mg (n = 24)) was 1 (4.2) n (%), the “Most frequent TEAEs: Nausea, n (%)” value ([1]; 600 mg (n = 24)) was 4 (16.7) n (%) and the “Most frequent TEAEs: Vomiting, n (%)” value ([1]; 600 mg (n = 24)) was 1 (4.2) n (%). The “TEAEs leading … ALT increased, n (%)” value ([1]; 600 mg (n = 24)) was 0 n (%), the “TEAEs leading … All, n (%)” value ([1]; 600 mg (n = 24)) was 1 (4.2) n (%) and the “TEAEs leading … Lipase increased, n (%)” value ([1]; 600 mg (n = 24)) was 1 (4.2) n (%). The “TEAEs leading … Nausea, n (%)” value ([1]; 600 mg (n = 24)) was 0 n (%), the “TEAEs leading … Syncope, n (%)” value ([1]; 600 mg (n = 24)) was 0 n (%) and the “TEAEs leading … Vomiting, n (%)” value ([1]; 600 mg (n = 24)) was 0 n (%). The “n (%) of subjects with Any TEAE” value ([1]; 600 mg (n = 24)) was 6 (25.0) n (%), the “n (%) of subjects with Treatment-related TEAE” value ([1]; 600 mg (n = 24)) was 6 (25.0) n (%) and the TEAE nausea ([1]; 600 mg group) was 16.7%. For the same compound, the “tolerability of multiple doses” value ([1]; 300, 450 and 600 mg once daily for 5 days) was “generally well-tolerated”, the TEAE nausea ([1]; 300 and 450 mg dose groups) was at most 7.7% and the “Most frequent TEAEs: ALT increased, n (%)” value ([1]; Omadacycline Overall (n = 26)) was 2 (7.7) n (%). The “Most frequent TEAEs: Diarrhea, n (%)” value ([1]; Omadacycline Overall (n = 26)) was 2 (7.7) n (%), the “Most frequent TEAEs: Dizziness, n (%)” value ([1]; Omadacycline Overall (n = 26)) was 3 (11.5) n (%) and the “Most frequent TEAEs: Nausea, n (%)” value ([1]; Omadacycline Overall (n = 26)) was 6 (23.1) n (%). For the same compound, the “Most frequent TEAEs: Vomiting, n (%)” value ([1]; Omadacycline Overall (n = 26)) was 3 (11.5) n (%).
